For one test, the system named is diabetic mice. The experiment in a line: Five-day daily ip exendin-4 in 14 weeks old diabetic mice. The conditions noted are these: 24 nmol/kg ip daily. In kind it is in vivo, mouse. The protocol: In another group of eight diabetic mice 14 weeks old we gave 24 nmol/kg exendin-4 ip daily and NaCl ip daily for five days to four each of the group.
Assays. Plasma glucose was measured by the glucose oxidase method (Wang et al., 1997). Insulin was measured by RIA as previously described (See Example 1). Hb A1c was assayed using a BIO-RAD (Herculas Calif.) DiaSTAT machine which uses low pressure cation exchange chromatography in conjunction with gradient elution to separate hemoglobin subtypes and variants from hemolyzed blood. The separated hemoglobin fractions were monitored by means of absorption of light at 415 nm.

Test [1] has as its system Hexokinase I, II and III mRNA. The experiment in a line: Slot-blot quantitation of hexokinase I, II and III mRNA in pancreata and islets. In kind it is in vivo, rat. The conditions noted are these: whole pancreata and islets. As to the method: (§1) Whole pancreata of rats that had been subjected to 48 hrs infusion with GLP-1 or saline were used to extract total RNA. After an overnight fast, animals were sacrificed, pancreata were removed and frozen in liquid nitrogen as quickly as possible. RNA was extracted by homogenization in guanidinium isothiocyanate, followed by ultracentrifugation on a 5.7 M cesium chloride cushion (Glisin et al., 1974; Chigwin et al., 1979). Poly-A RNA was then prepared from total RNA by affinity chromatography using oligo (dT) columns (Biolabs INC, Beverly, Mass.). RNA was quantified by spectrophotometric analysis at […]. Slot-blot analysis using poly-A RNA was used for quantitation of mRNA levels of glucokinase, which is the main glucose sensor of the beta cell (Matschinsky, 1990), the three hexokinases, GLUT2, the major glucose transporter of the beta cell (Mueckler, 1990), and insulin. Four micrograms of poly-A RNA were diluted in 50 μl TE buffer (Tris-HCL 10 mM, EDTA 1 mM, pH 7.4), 20 μl of 37% formaldehyde and 20 μl of 10× SSC. Samples were incubated at 60° C. for 15 min and then diluted with 1 ml of ice-cold 10× SSC (1×SCC=0.15 M NaCl+0.015 sodium citrate). […]
RNA isolation and quantitation of mRNAs in islets of Langerhans. […] Slot-Blot analysis was carried out to quantitate mRNA levels of the hexokinases, GLUT2, and insulin.

The subject of another test is 22 month old Wistar rats. The experiment in a line: Intraperitoneal glucose tolerance test after 48 hrs subcutaneous GLP-1 infusion. The class given is in vivo, rat. The conditions noted are these: […] for 48 hrs. As to the method:
(§2) The rats were implanted with an Alzet micro-osmotic pump (Alza Corp., Palo Alto, Calif.) in the interscapular region for 48 hrs. […] Control animals received normal saline in their pumps and received their infusion for the same length of time.
Blood samples were obtained at 15, 30, 45, 60, and 90 min in order to estimate glucose and insulin levels. Blood (200 μl) was drawn into heparinized tubes containing EDTA for glucose and insulin determination.
Assays. Plasma glucose was measured by the glucose oxidase method (Egan et al., 1991). […] The amount of cellular proteins was measured using the Bradford method (Bio-Rad Richmond, Calif.) using bovine γ-globulin as standard.

The subject of a further test is pancreata. The experiment in a line: Pancreas weight after continuous GLP-1 infusion. In kind it is in vivo, rat. The text has this:
The pancreata of treated animals weighed 26% more than the pancreata of control animals.

A further test concerns GLUT2 mRNA. The experiment in a line: Slot-blot quantitation of GLUT2 mRNA in pancreata and islets. The class given is in vivo, rat.
Source text: as §2
as §1, with “After” for “Whole pancreata of rats that had been subjected to 48 hrs infusion with GLP-1 or saline were used to extract total RNA. After”

On to exendin-4, for which the “blood sugars after five days” value in the test with diabetic mice (NaCl-treated 640±37) is 355 ± 21 mg/dL. Besides, the “insulin levels after five days” value in the test on diabetic mice (NaCl-treated 1,072±54) was 6,904±705 pmol/l.
As for `CC[C@H](C)[C@H](NC(=O)[C@H](Cc1ccccc1)NC(=O)[C@H](CCC(=O)O)NC(=O)[C@H](CCCCN)NC(=O)[C@H](C)NC(=O)[C@H](C)NC(=O)[C@H](CCC(N)=O)NC(=O)CNC(=O)[C@H](CCC(=O)O)NC(=O)[C@H](CC(C)C)NC(=O)[C@H](Cc1ccc(O)cc1)NC(=O)[C@H](CO)NC(=O)[C@H](CO)NC(=O)[C@@H](NC(=O)[C@H](CC(=O)O)NC(=O)[C@H](CO)NC(=O)[C@@H](NC(=O)[C@H](Cc1ccccc1)NC(=O)[C@@H](NC(=O)CNC(=O)[C@H](CCC(=O)O)NC(=O)[C@H](C)NC(=O)[C@@H](N)Cc1c[nH]cn1)[C@@H](C)O)[C@@H](C)O)C(C)C)C(=O)N[C@@H](C)C(=O)N[C@@H](Cc1c[nH]c2ccccc12)C(=O)N[C@@H](CC(C)C)C(=O)N[C@H](C(=O)N[C@@H](CCCCN)C(=O)NCC(=O)N[C@@H](CCCNC(=N)N)C(N)=O)C(C)C` [GLP-1], the “Hexokinase I, II and III mRNA levels” value in test [1] was “did not appear to be altered”. Further, the “blood glucose during glucose tolerance test” value was determined as 9.04 ± 0.92 mmol/L with 22 month old Wistar rats (15 min after 1 g/kg ip glucose, control 11.61±0.23) and 8.61 ± 0.39 mmol/L in the test on 22 month old Wistar rats (30 min after 1 g/kg ip glucose, control 10.36±0.43). In addition, the “pancreas weight increase over control animals” value in the test with pancreata was found to be 26%. The “effect on decreased GLUT-2 mRNA levels” value in the test with GLUT2 mRNA (old animals (decreased by 70% vs young controls), P<0.001) is reported as “entirely reversed”. Besides, the “effect on GLUT2 mRNA levels” value with GLUT2 mRNA (young animals) is listed as “did not significantly influence”.

The record behind these values is patent publication US7056734B1, “Differentiation of non-insulin producing cells into insulin producing cells by GLP-1 or exendin-4 and uses thereof” (The United States of America as represented by the …, priority 1998, dated 2006).
